What follows are compounds tested against T1, fatty acyl CoA:cholesterol acyl transferase (ACAT) (Rattus norvegicus, UniProt O70536) (assay: In vitro inhibition of fatty acyl CoA:cholesterol acyl transferase (ACAT), rat adrenal supernatant). Conditions: final concentration 5.2 μg./ml., pH 7.4, 37° C., oleoyl CoA (14C).
T1 construct: The supernatant, containing the microsomal fraction, served as the source of the cholesterol-esterifying enzyme; from tissue; host or cells: rat adrenals, homogenate, 1000 x g supernatant containing the microsomal fraction
T1 sequence (O70536 1-545): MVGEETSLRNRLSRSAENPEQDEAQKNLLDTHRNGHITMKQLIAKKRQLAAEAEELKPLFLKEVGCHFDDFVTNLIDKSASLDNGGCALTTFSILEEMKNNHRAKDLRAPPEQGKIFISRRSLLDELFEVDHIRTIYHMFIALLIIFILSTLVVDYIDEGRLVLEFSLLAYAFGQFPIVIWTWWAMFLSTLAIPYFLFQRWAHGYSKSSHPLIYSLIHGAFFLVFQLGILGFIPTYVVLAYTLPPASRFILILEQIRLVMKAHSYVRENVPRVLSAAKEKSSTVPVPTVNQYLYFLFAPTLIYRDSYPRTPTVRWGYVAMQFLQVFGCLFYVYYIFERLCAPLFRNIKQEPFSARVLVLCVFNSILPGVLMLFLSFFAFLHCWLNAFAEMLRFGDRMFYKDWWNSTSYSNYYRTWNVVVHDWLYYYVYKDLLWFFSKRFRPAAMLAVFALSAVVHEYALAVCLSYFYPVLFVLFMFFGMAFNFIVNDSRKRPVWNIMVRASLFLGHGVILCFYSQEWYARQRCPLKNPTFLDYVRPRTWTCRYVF
Type: biochemical
Procedure: The compounds were tested for their ability to inhibit ACAT according to the following procedure:
Rat adrenals were homogenized in 0.2 M monobasic potassium phosphate buffer, pH 7.4, and centrifuged at 1000 times gravity for 15 minutes at 5° C. The supernatant, containing the microsomal fraction, served as the source of the cholesterol-esterifying enzyme, fatty acyl CoA:cholesterol acyl transferase (ACAT). A mixture comprising 50 parts of adrenal supernatant, 10 parts of albumin (BSA) (50 mg./ml.), 3 parts of test compound (final concentration 5.2 μg./ml.) and 500 parts of buffer was preincubated at 37° C. for 10 minutes. After treatment with 20 parts of oleoyl CoA (^14 C--0.4 μCi) the mixture was incubated at 37° C. for 10 minutes. A control mixture, omitting the test compound, was prepared and treated in the same manner. The lipids from the incubation mixture were extracted into an organic solvent and separated by thin-layer chromatography. The cholesteryl ester fraction was counted in a scintillation counter.

Structure (SMILES) | inhibition at 5.2 µg/mL [%]
O=C(Nc1cccc2ccccc12)N(Cc1ccccc1)Cc1ccccc1 [1,1-Dibenzyl-3-(2,3-dibenzophenyl)urea] | 90
O=C(Nc1cccc(Cl)c1Cl)N(Cc1ccccc1)Cc1ccccc1 [1,1-Dibenzyl-3-(2,3-dichlorophenyl)urea] | 79.7
Cc1cc(C)c(NC(=O)N(Cc2ccccc2)Cc2ccccc2)cc1C [1,1-Dibenzyl-3-(2,4,5-trimethylphenyl)urea] | 69.1
O=C(Nc1ccc(Br)cc1Br)N(Cc1ccccc1)Cc1ccccc1 [1,1-Dibenzyl-3-(2,4-dibromophenyl)urea] | 81.9
O=C(Nc1ccc(Cl)cc1Cl)N(Cc1ccccc1)Cc1ccccc1 [1,1-Dibenzyl-3-(2,4-dichlorophenyl)urea] | 83.3
Cc1ccc(NC(=S)N(Cc2ccccc2)Cc2ccccc2)c(C)c1 [1,1-Dibenzyl-3-(2,4-dimethylphenyl)thiourea] | 78.7
O=C(Nc1cc(Cl)ccc1Cl)N(Cc1ccccc1)Cc1ccccc1 [1,1-Dibenzyl-3-(2,5-dichlorophenyl)urea] | 82.4
O=C(Nc1cc(F)ccc1F)N(Cc1ccccc1)Cc1ccccc1 [1,1-Dibenzyl-3-(2,5-difluorophenyl)urea] | 72
COc1ccc(OC)c(NC(=O)N(Cc2ccccc2)Cc2ccccc2)c1 [1,1-Dibenzyl-3-(2,5-dimethoxyphenyl)urea] | 87.9
Cc1ccc(C)c(NC(=O)N(Cc2ccccc2)Cc2ccccc2)c1 [1,1-Dibenzyl-3-(2,5-dimethylphenyl)urea] | 89.1
O=C(Nc1c(Cl)cccc1Cl)N(Cc1ccccc1)Cc1ccccc1 [1,1-Dibenzyl-3-(2,6-dichlorophenyl)urea] | 88.6
CCc1cccc(CC)c1NC(=O)N(Cc1ccccc1)Cc1ccccc1 [1,1-Dibenzyl-3-(2,6-diethylphenyl)urea] | 72
Cc1cccc(C)c1NC(=O)N(Cc1ccccc1)Cc1ccccc1 [1,1-Dibenzyl-3-(2,6-dimethylphenyl)urea] | 56.1
CC(C)c1cccc(C(C)C)c1NC(=O)N(Cc1ccccc1)Cc1ccccc1 [1,1-Dibenzyl-3-(2,6-isopropylphenyl)urea, 1,1-Dibenzyl-3-(2,6-diisopropylphenyl)urea] | 59.1
O=C(Nc1ccccc1Br)N(Cc1ccccc1)Cc1ccccc1 [1,1-Dibenzyl-3-(2-bromophenyl)urea] | 93.9
O=C(Nc1ccccc1Cl)N(Cc1ccccc1)Cc1ccccc1 [1,1-Dibenzyl-3-(2-chlorophenyl)urea] | 87.8
COc1ccccc1NC(=O)N(Cc1ccccc1)Cc1ccccc1 [1,1-Dibenzyl-3-(2-methoxyphenyl)urea] | 91
Cc1ccccc1NC(=O)N(Cc1ccccc1)Cc1ccccc1 [1,1-Dibenzyl-3-(2-methylphenyl)urea] | 77
O=C(Nc1ccccc1C(F)(F)F)N(Cc1ccccc1)Cc1ccccc1 [1,1-Dibenzyl-3-(2-trifluoromethylphenyl)urea] | 68.4
O=C(Nc1ccc(Cl)c(Cl)c1)N(Cc1ccccc1)Cc1ccccc1 [1,1-Dibenzyl-3-(3,4-dichlorophenyl)urea] | 94.5
O=C(Nc1cc(Cl)cc(Cl)c1)N(Cc1ccccc1)Cc1ccccc1 [1,1-Dibenzyl-3-(3,5-dichlorophenyl)urea] | 86.1
Cc1cc(C)cc(NC(=O)N(Cc2ccccc2)Cc2ccccc2)c1 [1,1-Dibenzyl-3-(3,5-dimethylphenyl)urea] | 90.2
CC(=O)c1cccc(NC(=O)N(Cc2ccccc2)Cc2ccccc2)c1 [1,1-Dibenzyl-3-(3-acetylphenyl)urea] | 80.7
Cc1ccc(NC(=O)N(Cc2ccccc2)Cc2ccccc2)cc1 [1,1-Dibenzyl-3-(4-methylphenyl)urea] | 89.8
CCCCOc1ccc(NC(=O)N(Cc2ccccc2)Cc2ccccc2)cc1 [1,1-Dibenzyl-3-(4-n-butoxyphenyl)urea] | 90.2

More lines, now with the values ahead:

inhibition at 5.2 µg/mL [%] | Structure (SMILES)
91.9 | O=C(Nc1cccc(Br)c1)N(Cc1ccccc1)Cc1ccccc1 [1,1-Dibenzyl-3-(3-bromophenyl)urea]
83.8 | Cc1c(Cl)cccc1NC(=O)N(Cc1ccccc1)Cc1ccccc1 [1,1-Dibenzyl-3-(3-chloro-2-methylphenyl)urea]
94.1 | Cc1ccc(NC(=S)N(Cc2ccccc2)Cc2ccccc2)cc1Cl [1,1-Dibenzyl-3-(3-chloro-4-methylphenyl)thiourea]
94.2 | O=C(Nc1cccc(Cl)c1)N(Cc1ccccc1)Cc1ccccc1 [1,1-Dibenzyl-3-(3-chlorophenyl)urea]
87 | COc1cccc(NC(=O)N(Cc2ccccc2)Cc2ccccc2)c1 [1,1-Dibenzyl-3-(3-methoxyphenyl)urea]
71.2 | Cc1cccc(NC(=S)N(Cc2ccccc2)Cc2ccccc2)c1 [1,1-Dibenzyl-3-(3-methylphenyl)thiourea]
88.9 | Cc1cccc(NC(=O)N(Cc2ccccc2)Cc2ccccc2)c1 [1,1-Dibenzyl-3-(3-methylphenyl)urea]
81.3 | O=C(Nc1cccc([N+](=O)[O-])c1)N(Cc1ccccc1)Cc1ccccc1 [1,1-Dibenzyl-3-(3-nitrophenyl)urea]
88.6 | FC(F)(F)c1cccc(NC(=S)N(Cc2ccccc2)Cc2ccccc2)c1 [1,1-Dibenzyl-3-(3-trifluoromethylphenyl)thiourea]
94.2 | O=C(Nc1cccc(C(F)(F)F)c1)N(Cc1ccccc1)Cc1ccccc1 [1,1-Dibenzyl-3-(3-trifluoromethylphenyl)urea]
79.9 | O=C(Nc1ccc(Br)cc1)N(Cc1ccccc1)Cc1ccccc1 [1,1-Dibenzyl-3-(4-bromophenyl)urea]
76.6 | CCOC(=O)c1ccc(NC(=S)N(Cc2ccccc2)Cc2ccccc2)cc1 [1,1-Dibenzyl-3-(4-carboethoxyphenyl)thiourea]
14.1 | O=C(O)c1ccc(NC(=O)N(Cc2ccccc2)Cc2ccccc2)cc1 [1,1-Dibenzyl-3-(4-carboxyphenyl)urea]
92 | O=C(Nc1ccc(Cl)c(C(F)(F)F)c1)N(Cc1ccccc1)Cc1ccccc1 [1,1-Dibenzyl-3-(4-chloro-3-trifluoromethylphenyl)urea]
77.5 | O=C(Nc1ccc(Cl)cc1)N(Cc1ccccc1)Cc1ccccc1 [1,1-Dibenzyl-3-(4-chlorophenyl)urea]
95.8 | CCOc1ccc(NC(=O)N(Cc2ccccc2)Cc2ccccc2)cc1 [1,1-Dibenzyl-3-(4-ethoxyphenyl)urea]
85.2 | O=C(Nc1ccc(I)cc1)N(Cc1ccccc1)Cc1ccccc1 [1,1-Dibenzyl-3-(4-iodophenyl)urea]
71.6 | COc1ccc(NC(=O)N(Cc2ccccc2)Cc2ccccc2)cc1 [1,1-Dibenzyl-3-(4-methoxyphenyl)urea]
67.1 | CSc1ccc(NC(=O)N(Cc2ccccc2)Cc2ccccc2)cc1 [1,1-Dibenzyl-3-(4-methylthiophenyl)urea]
52.2 | O=C(Nc1ccc([N+](=O)[O-])cc1)N(Cc1ccccc1)Cc1ccccc1 [1,1-Dibenzyl-3-(4-nitrophenyl)urea]
83.9 | Cc1cccc(Cl)c1NC(=O)N(Cc1ccccc1)Cc1ccccc1 [1,1-Dibenzyl-3-(6-chloro-2-methylphenyl)urea]
73.6 | CCc1cccc(C)c1NC(=O)N(Cc1ccccc1)Cc1ccccc1 [1,1-Dibenzyl-3-(6-ethyl-2-methylphenyl)urea]
90.4 | O=C(Nc1ccccc1)N(Cc1ccccc1)Cc1ccccc1 [1,1-Dibenzyl-3-phenylurea, 1,1-Dibenzyl-3-phenyl urea]

Same assay, conditions: pH 7.4, final concentration 5.2 μg./ml., pH 7.4, 37° C., oleoyl CoA (14C)

Structure (SMILES) | inhibition at 5.2 µg/mL [%]
O=C(Nc1ccc2ccccc2c1)N(Cc1ccccc1)Cc1ccccc1 [1,1-Dibenzyl-3-(3,4-dibenzophenyl)urea] | 97.3
Cc1ccc(NC(=O)N(Cc2ccccc2)Cc2ccccc2)cc1 [1,1-Dibenzyl-3-(4-methylphenyl)urea] | 86.5

These compounds were tested on Cholesterol absorption (assay: not given). Conditions: po, 0.03 % of diet, 336 h.

Structure (SMILES) | Result (inhibition of cholesterol absorption: lowering of serum or liver cholesterol relative to control)
Cc1cc(C)c(NC(=O)N(Cc2ccccc2)Cc2ccccc2)cc1C [1,1-Dibenzyl-3-(2,4,5-trimethylphenyl)urea] | Active
O=C(Nc1ccc(Cl)cc1Cl)N(Cc1ccccc1)Cc1ccccc1 [1,1-Dibenzyl-3-(2,4-dichlorophenyl)urea] | Active
Cc1ccc(NC(=S)N(Cc2ccccc2)Cc2ccccc2)c(C)c1 [1,1-Dibenzyl-3-(2,4-dimethylphenyl)thiourea] | Active
O=C(Nc1ccccc1C(F)(F)F)N(Cc1ccccc1)Cc1ccccc1 [1,1-Dibenzyl-3-(2-trifluoromethylphenyl)urea] | Active
O=C(Nc1cccc(Br)c1)N(Cc1ccccc1)Cc1ccccc1 [1,1-Dibenzyl-3-(3-bromophenyl)urea] | Active
Cc1ccc(NC(=S)N(Cc2ccccc2)Cc2ccccc2)cc1Cl [1,1-Dibenzyl-3-(3-chloro-4-methylphenyl)thiourea] | Active
Cc1cccc(NC(=S)N(Cc2ccccc2)Cc2ccccc2)c1 [1,1-Dibenzyl-3-(3-methylphenyl)thiourea] | Active
